# How the values were obtained:
# Assay type in all cases: in vivo, C57/BL6 mice
# [1] = tested on: model of Parkinson's disease; test: Behavioral balance beam score in the MPTP mouse model of Parkinson's disease; settings: for balance beam score after treatment: after 14 days intragastric treatment, model group 4-5 points; for Behavioral balance beam score, After treatment: after intragastric administration once a day for 14 days (compound 3 100 mg/kg; amantadine 40 mg/kg), model group 4.50 ± 0.53; for Behavioral balance beam score, After treatment / Behavioral balance beam score, After modeling: scale 0-5; for balance beam score as compared to the model group: after treatment, P≤0.05; for Behavioral balance beam score, After modeling: baseline 7 days after MPTP 25 mg/kg i.p. once daily, before treatment, mean ± SD, 8 mice per group
# Method: C57/BL6 mice, SPF grade, weighing 18-20 g, aged 6-8 weeks, male, purchased from Shanghai Slac Laboratory Animal Co., Ltd. Feeding environment: the temperature was kept at 22±1° C., and the humidity was kept at 65%-70%, in a 12/12 hour light/dark illumination cycle, with free access to water.
# (1) 32 SPF-grade C57 mice aged 6-8 weeks were purchased and acclimatized for one week, and subsequently the modeling was started.
# (§1) (2) MPTP (25 mg/kg) was intraperitoneally injected once a day for 7 consecutive days. The blank group was left untreated.
# (§2) (3) After modeling, administration was started. […] The intragastric administration was performed once a day for 14 consecutive days.
# (4) Behavioral test was first performed by balance beam test scoring.
# A beam of 80 cm long and 2.5 cm wide was horizontally fixed at a height of 10 cm from the table top, and subsequently, the animals were allowed to walk on the beam.
# The scoring scale was as follows: being able to jump on the balance beam and to walk freely without falling down: 0 points; being able to jump on the balance beam, but having a probability of tumbling down of less than 50% when walking on the balance beam: 1 point; being able to jump on the balance beam, but having a probability of tumbling down of greater than 50% when walking on the balance beam: 2 points; being able to jump on the balancing beam with the help of the normal side of the body, but failing to get help from the hind limb on the paralyzed side to move forward: 3 points; being unable to walk on the balance beam, but being able to sit on the beam: 4 points; falling off quickly when being placed on the beam: 5 points.
# [2] = tested on: tyrosine hydroxylase (TH) cells in substantia nigra (SubN); test: Tyrosine hydroxylase (TH) cells in substantia nigra (SubN) by immunohistochemistry in the MPTP mouse model of Parkinson's disease; settings: for positive rate of TH cells in substantia nigra as compared to the model group: after treatment; for TH cell positive rate: substantia nigra, after 14 days intragastric treatment (compound 3 100 mg/kg; amantadine 40 mg/kg), blank 34.27 ± 5.08, model 12.74 ± 1.71
# Method: as §1, §2
# The tissue should be cut using sharp knives and scissors. When cutting a tissue mass, the tissue was cut by pulling backwards from the root of the knife. […] The prepared tissue mass was fixed in 10% formalin for 48 h.
# The fixed tissue was washed with running water to remove residual fixing liquid and impurities. The tissue mass was dehydrated in stages with different concentrations of ethanol (50%, 70%, 85%, 95%, up to pure alcohol (absolute ethanol)), each stage for 2 h. Dehydration must be performed in a capped flask to prevent high concentrations of ethanol from absorbing moisture in the air, resulting in reduced concentrations and incomplete dehydration. The material to be preserved can remain in 70% ethanol when being dehydrated with it. For long-term preservation, an equivalent amount of glycerol can be added.
# The tissue mass was placed into a mixed solution of pure ethanol and xylene in an equivalent volume and left to stand for 2 h, subsequently placed into pure xylene and left to stand for two hours, and placed into pure xylene and left to stand for another two hours. After transparentizing, the effect of the previous dehydration of the material can be shown. If the dehydration is complete, the tissue is in a transparent state, and if there is a white cloud-shaped substance in the tissue, it means that the dehydration is incomplete and must be reworked, but the effect of rework is often not good. When xylene is used for transparentizing, it should be prevented from volatilizing and absorbing moisture in the air, and it should be kept in an anhydrous state.
# The paraffin immersion must be performed in a thermostat. The tissue mass material was first immersed in a mixed solution of molten paraffin and xylene in equal volume for 1-2 h and subsequently immersed in 2 parts of molten paraffin solutions for 3 h each.
# Embedding is the encapsulation of the paraffin-impregnated tissue mass with paraffin. Specifically, a paper box was first prepared, molten paraffin was added to the box, a tissue mass was quickly clamped by using a pair of pre-heated tweezers, and placed flat at the bottom of the paper box with a cut surface facing downwards. Subsequently, the paper box was slightly lifted up and placed flat in cold water, immediately pressed into the water after the paraffin on the surface was solidified for quickly cooling and solidifying the paraffin, and taken out after 30 min.
# The paraffin block was placed in a refrigerator at −20° C. for at least 30 min before slicing to increase hardness. […]
# dopamine in striatum = test: Content of dopamine in brain striatum by the kit method (ELISA) in the MPTP mouse model of Parkinson's disease
# Method: as §1, §2
# After the mice were sacrificed quickly, the brains of the mice were taken and the cerebral palliums (CPs) of the mice were isolated. After exposing the brain striatum of the mice, the striatum was weighed and homogenized after adding PBS according to a proportion. The supernatant was isolated and detected for the content of dopamine in the brain striatum.
# (1) Standard curve plotting: a microplate was taken, and reagents were added according to the table below.
# (2) According to the number of samples, a proper amount of BCA working solution was prepared by uniformly mixing BCA reagent A and reagent B according to a volume ratio of 50:1.
# (3) 160 μL of BCA working solution was added to each well.
# (4) The microplate was shaken on a shaker for 30 s, left to stand at 37° C. for 30 min, and subsequently measured for absorbance at 562 nm. A standard curve was plotted with the absorbance value as an abscissa and the protein concentration (μg/μL) as an ordinate.
# (5) 2 μL of test protein and 18 μL of PBS (10-fold dilution) were added to the microplate, 160 μL of BCA working solution was added, and the microplate was shaken on a shaker for 30 s, left to stand at 37° C. for 30 min, and subsequently measured for the absorbance at 562 nm.
# (7) The experimental procedures and methods for the determination of dopamine in mice were referred to the kit instructions.
Compound,balance beam score after treatment [1],"Behavioral balance beam score, After treatment [1]",balance beam score as compared to the model group [1],"Behavioral balance beam score, After modeling [1]",positive rate of TH cells in substantia nigra as compared to the model group [2],TH cell positive rate [2],"DA content of dopamine in striatum after treatment (dopamine in striatum; after 14 days intragastric treatment (compound 3 100 mg/kg; amantadine 40 mg/kg), blank 0.71 ± 0.16, model 0.30 ± 0.07)","dopamine content as compared to the model group (dopamine in striatum; after treatment, P≤0.01)","content of dopamine compared with the blank group (dopamine in striatum; after treatment, P≤0.05)"
"NC12CC3CC(CC(C3)C1)C2 [Positive drug, amantadine, reference compound]",2-3 points,2.13 ± 0.83,significant descending trend,4.75 ± 0.46,significant increase,20.82 ± 5.77 %,,,
C=C(C)[C@@H]1CCC(C)=C[C@H]1c1c(OC(=O)[C@@H](N)CCCCN)cc(CCCCC)cc1OC(=O)[C@@H](N)CCCCN [compound 3],3-4 points,3.50 ± 1.07,significant descending trend,4.38 ± 0.52,increase,14.59 ± 2.60%,0.45 ± 0.10 ng/mg,increase,significant decrease
